# Reference: patent US20140356854A1, “METHODS AND COMPOSITIONS RELATING TO MEVALONATE PHOSPHATE DECARBOXYLASE” (Salk Institute for Biological Studies, priority 2013, published 2014)
# Several values for one entry are separate records, joined by “and”; a condition that tells them apart may be missing. Equal values may be shown once. Read-outs that look alike come from different tables or passages of the source.
# B1: IPK from B. floridae (Branchiostoma floridae) (protein)
# chain: MVSSSRSKVMAEADASLECIVKLGGSAVTDKSTLETPRLDAIRAAADIISQVRGRCIVVHGAGSFGHFQAREHGVVWGYRDKETDTEVQTVKLGFCRTRQSVTKLLHIITEEFVRLGIPAVGVSPLSSWVTDDASVVKADTDNIRDMLLEGFLPVMHGDAVLDRKRGCTILSGDTIIKHLCSVFRPPRVVFLTDVPGIYDRPPEQPGAQLIPEIQVDRDRKLHVSIATSSQAHDVTGGIALKLKSAIDIVTESNGHTCVMVCGIQSQAAVRACVEGQLPQGTGTIVQLNISKHPDEVT
# B2: IPK from A. thaliana (Arabidopsis thaliana) (protein)
# chain: MELNISESRSRSIRCIVKLGGAAITCKNELEKIHDENLEVVACQLRQAMLEGSAPSKVIGMDWSKRPGSSEISCDVDDIGDQKSSEFSKFVVVHGAGSFGHFQASRSGVHKGGLEKPIVKAGFVATRISVTNLNLEIVRALAREGIPTIGMSPFSCGWSTSKRDVASADLATVAKTIDSGFVPVLHGDAVLDNILGCTILSGDVIIRHLADHLKPEYVVFLTDVLGVYDRPPSPSEPDAVLLKEIAVGEDGSWKVVNPLLEHTDKKVDYSVAAHDTTGGMETKISEAAMIAKLGVDVYIVKAATTHSQRALNGDLRDSVPEDWLGTIIRFSK
# B3: PMK from A. thaliana (Arabidopsis thaliana) (protein)
# chain: MAVVASAPGKVLMTGGYLVLEKPNAGLVLSTNARFYAIVKPINEEVKPESWAWKWTDVKLTSPQLSRESMYKLSLNHLTLQSVSASDSRNPFVEHAIQYAIAAAHLATEKDKESLHKLLLQGLDITILGSNDFYSYRNQIESAGLPLTPESLGTLAPFASITFNAAESNGANSKPEVAKTGLGSSAAMTTAVVAALLHYLGVVDLSDPCKEGKFGCSDLDVIHMIAQTSHCLAQGKVGSGFDVSCAVYGSQRYVRFSPEVLSFAQVAVTGLPLNEVIGTILKGKWDNKRTEFSLPPLMNLFLGEPGSGGSSTPSMVGAVKKWQMSDPEKARENWQNLSDANLELETKLNDLSKLAKDHWDVYLRVIKSCSVLTSEKWVLHATEPINEAIIKELLEAREAMLRIRILMRQMGEAASVPIEPESQTQLLDSTMSAEGVLLAGVPGAGGFDAIFAITLGDSGTKLTQAWSSHNVLALLVREDPHGVCLESGDPRTTCITSGVSSIHLE
# B4: MDD from A. thaliana (Arabidopsis thaliana) (protein)
# chain: MAEEKWVVMVTAQTPTNIAVIKYWGKRDEVRILPINDSISVTLDPDHLCTLTTVAVSPSFDRDRMWLNGKEISLSGSRYQNCLREIRSRADDVEDKEKGIKIAKKDWEKLHLHIASHNNFPTAAGLASSAAGFACLVFALAKLMNVNEDPSQLSAIARQGSGSACRSLFGGFVKWNMGNKEDGSDSVAVQLVDDKHWDDLVIIIAVVSSRQKETSSTSGMRESVETSLLLQHRAKEVVPVRILQMEEAIKNRDFTSFTKLTCSDSNQFHAVCMDTSPPIFYMNDTSHRIISLVEKWNRSAGTPEIAYTFDAGPNAVMIARNRKVAVELLQGLLYCFPPKPDTDMKSYVLGDTSIVKEAGLEGELPQGIKDKIGSQDQKGEVSYFICSRPGRGPVVLQDQTQALLHPQTGLPK
# B5: IPK from T. adhaerens (Trichoplax adhaerens) (protein)
# chain: MALENRHVDCIIKLGGSAITSKQHLEKANTQAINIAASHVHEMTRKCVIVHGAGSFGHFHAKKYNIATGFNDTDFEQQRIGFSQTRLSVTKLNHIIVQALIEKDVPAVSISPCGLWKTTDRSVTSTFLQPINDLLRAGFVPVVHGDAVIDTSLGCTILSGDTIIQILAENLCPKRIIFITDTNGIYDRPPHNDDAKLLRYISVTKDGKVTNEIETSQLEHDVTGGVQTKIASAAHIVSKCNIPVHVVKLGSAAAWKLLDKGELEESDIATTITLQESEYPK
# B6: IPK from M. maripaludis (Methanococcus maripaludis S2) (protein)
# chain: MFAILKLGGSILCDKNIPYSINWENLENIAIEIKEAIEYYKSKNEEFKLIIVHGGGSFGHPVAKKYLKDGKFVDMGKGYWEIQKAMRKFNNIVIEELQNFEIPAVSIQASSFITFDNESNLHFDTNAVEKMLDKGLIPVIHGDIVIDEKTDNFKIFSGDHALPFLSKKLNPDLSLHASDVDGVWDLNFKIIENINSKNIEDVLKSLKPSNKEDVTGGMHLKVMECYNLGIKTIIFNGNKKRNIYNALLKNVKGTLIN
# Assays:
# [1] = test system: MDD homolog from R. castenholzii; assay: Steady-state kinetics, MDD homolog tested as MDD; type: biochemical
# Description: (§1) Instead, it behaves as an MPD and catalyzes the decarboxylation of MVAP (3) to IP (4) with a kcat of 0.94 s^−1 and an apparent KM for MVAP of 1.150 mM (Table 2). This enzyme, by sequence homologous to MDD, has acquired an unexpected new function as a bona fide MPD playing the role of the long sought MPD of the alternative MVA pathway.
# (§2) Steady-state kinetic analyses.
# [2] = molecular target: MDD from B. floridae (Branchiostoma floridae, UniProt C3ZGP5); assay: Steady-state kinetics, coupled assay, MDD; type: biochemical; conditions: substrate MVAPP
# [3] = molecular target: MDD from S. solfataricus (Saccharolobus solfataricus, UniProt Q97UL5); assay: Steady-state kinetics, MDD; type: biochemical; conditions: steady state conditions, kinetic parameters could not be assigned
# [4] = molecular target: IPK from A. thaliana (Arabidopsis thaliana, UniProt Q8H1F7); assay: Kinetics, coupled assay, IPK
# [5] = molecular target: IPK from B. floridae (Branchiostoma floridae, UniProt A0A9J7KY69); assay: Steady-state kinetics, coupled assay, IPK
# [6] = molecular target: IPK from M. maripaludis (Methanococcus maripaludis, UniProt Q6LWR2); assay: Steady-state kinetics, coupled pyruvate kinase-lactate dehydrogenase assay, IPK
# [7] = molecular target: PMK from S. solfataricus (Saccharolobus solfataricus, UniProt Q97UL6); assay: Steady-state kinetics, coupled assay, PMK; type: biochemical
# [8] = test system: MPD from R. castenholzii (SEQ ID NO: 1); assay: Steady-state kinetics, coupled assay, MPD; type: biochemical
# Description: as §1, §2
# [9] = molecular target: PMK from B. floridae (Branchiostoma floridae, UniProt C3Y1G0); assay: Steady-state kinetics, coupled assay, PMK; type: biochemical; conditions: substrate MVAP
# [10] = test system: PMK and MDD from A. thaliana; assay: GC-MS in vitro classical MVA pathway reaction; type: biochemical; conditions: A. thaliana enzymes, 500 μM (RS)-MVAP, relative to FPP control
# Description: (§3) GC-MS quantification of fully functional alternative and classical MVA pathways. To confirm that the functional R. castenholzii MPD (MDD-like protein sequence) catalyzes the transformation of MVAP (3) to IP (4) in a reconstituted in vitro pathway, a five-enzyme in vitro reaction mixture was assembled. Briefly, MVAP (3) and ATP were incubated for 30 min with MPD and IPK from R. castenholzii. The reaction mixture was then diluted into a mixture containing all necessary downstream enzymes to biosynthesize the GC-detectable sesquiterpene 5-epi-aristolochene (5-EA, 6). Similar reactions were performed for the in vitro reconstitution of the classical MVA pathway using PMK and MDD from each respective organism.
# (§4) All GC-MS assays were carried out in two steps. First, 1 μM of each of two enzymes (PMK and MDD for the classical MVA pathway, MDD and IPK for the alternative MVA pathway) was incubated for 30 min with 500 μM (RS)-MVAP, 4 mM ATP, and 10 mM MgCl2 buffered with 50 mM Tris-HCl, pH 8.0. Second, 40 μl of this reaction was transferred to a glass vial containing 10 mM MgCl2 buffered with 50 mM Tris-HCl, pH 8.0, containing at least a 150-fold excess of each of the following enzymes: E. coli isopentenyl diphosphate isomerase (IPPI), E. coli farnesyl diphosphate synthase (FPPS), and tobacco 5-epi-aristolochene synthase (TEAS). This reaction mixture was overlaid with ethyl acetate, incubated overnight, and vortexed to extract hydrocarbons from the aqueous layer. GC-MS assays were performed as previously described (18). All values were compared to a control reaction, where FPP was added in place of MVA pathway enzymes at an appropriate concentration to simulate complete turnover of MVAP.
# [11] = test system: PMK and MDD from B. floridae; assay: GC-MS in vitro classical MVA pathway reaction; type: biochemical; conditions: B. floridae enzymes, 500 μM (RS)-MVAP, relative to FPP control
# Description: as §3, §4
# [12] = test system: PMK and MDD from S. solfataricus; assay: GC-MS in vitro classical MVA pathway reaction; type: biochemical; conditions: S. solfataricus enzymes, 500 μM (RS)-MVAP, relative to FPP control
# Description: as §3, §4
# [13] = test system: R. castenholzii MDD homolog with B. floridae PMK; type: biochemical
# [14] = test system: MPD and IPK from R. castenholzii; assay: GC-MS in vitro alternative MVA pathway reaction; type: biochemical
# Description: as §3
# All GC-MS assays were carried out in two steps. First, 1 μM of each of two enzymes (PMK and MDD for the classical MVA pathway, MDD and IPK for the alternative MVA pathway) was incubated for 30 min with 500 μM (RS)-MVAP, 4 mM ATP, and 10 mM MgCl2 buffered with 50 mM Tris-HCl, pH 8.0. Second, 40 μl of this reaction was transferred to a glass vial containing 10 mM MgCl2 buffered with 50 mM Tris-HCl, pH 8.0, containing at least a 150-fold excess of each of the following enzymes: E. coli isopentenyl diphosphate isomerase (IPPI), E. coli farnesyl diphosphate synthase (FPPS), and tobacco 5-epi-aristolochene synthase (TEAS). […]
# [15] = test system: IPK and MDD from A. thaliana; assay: GC-MS in vitro alternative MVA pathway reaction; type: biochemical
# Text: (§5) The in vitro classical MVA pathway reactions for S. solfataricus, A. thaliana, and B. floridae yield 39.2%, 48.7%, and 52.1% conversion of MVAP (3) to 5-EA (6), respectively (FIG. 3). The in vitro classical MVA pathway reaction from R. castenholzii (using B. floridae PMK to complete the missing step) yields less then 0.2% conversion to 5-EA (FIG. 3). In contrast, the in vitro alternative MVA pathway from R. castenholzii enzymes yields a 2.0% conversion of MVAP (3) to 5-EA (6). B. floridae, A. thaliana, and S. solfataricus were tested for a possible alternative MVA pathway components using their IPKs and MDDs.
# as §4
# [16] = test system: IPK and MDD from B. floridae; assay: GC-MS in vitro alternative MVA pathway reaction; type: biochemical
# Text: as §5, §4
# [17] = test system: IPK and MDD from S. solfataricus; assay: GC-MS in vitro alternative MVA pathway reaction; type: biochemical
# Text: as §5, §4
# [18] = molecular target: MJ0403 (Methanocaldococcus jannaschii, UniProt Q57846); assay: In vitro decarboxylase activity of MJ0403; type: biochemical, M. jannaschii
# Text: MJ0403 encodes a protein that is similar in sequence to subunit B of class III extradiol ring-cleavage dioxygenases and is also homologous to the human protein MEMO (mediator of erbB2-driven cell motility).
# [19] = substrate: C=C(C)CCOP(=O)(O)O; assay: purified protein, by the assay type; conditions: other: substrate IP
# [20] = substrate: CC(O)(CCOP(=O)(O)O)CC(=O)O; assay: purified protein, by the assay type; conditions: other: substrate MVAP; A. thaliana PMK
# [21] = substrate: CC(O)(CCOP(=O)(O)OP(=O)(O)O)CC(=O)O; assay: purified protein, by the assay type; conditions: other: substrate MVAPP; A. thaliana MDD
# Sequence of PMK from S. solfataricus (Q97UL6 whole entry): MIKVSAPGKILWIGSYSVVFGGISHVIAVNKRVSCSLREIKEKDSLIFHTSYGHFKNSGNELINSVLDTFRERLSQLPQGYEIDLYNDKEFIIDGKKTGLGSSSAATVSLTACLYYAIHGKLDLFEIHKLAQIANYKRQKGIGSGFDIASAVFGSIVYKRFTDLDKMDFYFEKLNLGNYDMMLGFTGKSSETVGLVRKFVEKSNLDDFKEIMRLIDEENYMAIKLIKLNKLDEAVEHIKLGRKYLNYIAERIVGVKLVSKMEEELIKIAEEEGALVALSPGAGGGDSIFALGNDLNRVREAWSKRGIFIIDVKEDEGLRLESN
# Sequence of MDD from B. floridae (C3ZGP5 1-409): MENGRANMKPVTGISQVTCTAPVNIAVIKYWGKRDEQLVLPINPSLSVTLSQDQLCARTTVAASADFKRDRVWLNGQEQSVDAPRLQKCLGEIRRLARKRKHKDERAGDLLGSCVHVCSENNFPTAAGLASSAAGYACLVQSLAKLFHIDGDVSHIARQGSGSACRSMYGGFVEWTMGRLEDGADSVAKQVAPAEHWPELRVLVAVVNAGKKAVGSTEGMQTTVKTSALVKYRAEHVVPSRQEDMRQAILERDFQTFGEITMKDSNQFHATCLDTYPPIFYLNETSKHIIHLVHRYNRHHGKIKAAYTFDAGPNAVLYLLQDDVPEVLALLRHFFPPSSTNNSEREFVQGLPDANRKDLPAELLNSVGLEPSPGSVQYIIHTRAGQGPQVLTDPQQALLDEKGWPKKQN
# Sequence of PMK from B. floridae (C3Y1G0 1-201): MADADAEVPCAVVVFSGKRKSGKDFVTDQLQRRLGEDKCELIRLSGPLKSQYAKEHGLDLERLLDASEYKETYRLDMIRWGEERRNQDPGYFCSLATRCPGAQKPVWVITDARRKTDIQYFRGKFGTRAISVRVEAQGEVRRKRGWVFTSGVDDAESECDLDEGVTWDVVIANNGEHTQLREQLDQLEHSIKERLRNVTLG
# Sequence of MDD from S. solfataricus (Q97UL5 whole entry): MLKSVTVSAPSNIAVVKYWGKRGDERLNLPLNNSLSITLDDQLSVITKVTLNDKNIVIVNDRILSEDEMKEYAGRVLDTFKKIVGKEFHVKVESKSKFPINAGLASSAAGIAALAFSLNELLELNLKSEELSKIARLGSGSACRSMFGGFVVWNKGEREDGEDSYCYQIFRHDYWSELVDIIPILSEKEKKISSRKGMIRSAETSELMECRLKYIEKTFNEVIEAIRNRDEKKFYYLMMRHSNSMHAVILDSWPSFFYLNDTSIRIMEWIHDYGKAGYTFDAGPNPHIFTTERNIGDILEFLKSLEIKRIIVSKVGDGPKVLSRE
# Sequence of MJ0403 (Q57846 whole entry): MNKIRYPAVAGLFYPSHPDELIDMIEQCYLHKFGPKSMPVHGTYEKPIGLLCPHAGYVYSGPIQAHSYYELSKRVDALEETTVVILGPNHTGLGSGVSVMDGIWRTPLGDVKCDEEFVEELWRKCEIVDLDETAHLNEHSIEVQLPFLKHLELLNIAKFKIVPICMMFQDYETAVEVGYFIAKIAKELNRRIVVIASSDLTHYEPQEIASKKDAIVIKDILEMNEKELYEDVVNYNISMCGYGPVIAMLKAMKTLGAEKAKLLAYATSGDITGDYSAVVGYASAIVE
molecule,measurement,setting,value
"CC(O)(CCOP(=O)(O)OP(=O)(O)O)CC(=O)O (racemic) [MVAPP, diphosphomevalonate]",decarboxylation of MVAPP to IPP at a measurable rate,[1],does not catalyze
same,Km,[2],15.1 µM
same,kcat,[2],1.36 (±0.09) s^−1
same,rate of decarboxylation of MVAPP,[3],very slow rate
"C=C(C)CCOP(=O)(O)O [IP, isopentenyl phosphate]",Ki,[4],522 µM
same,Ki,[5],2820 µM
same,Ki,[6],877 µM
"CC(O)(CCOP(=O)(O)O)CC(=O)O (stereo not shown) [MVAP, phosphomevalonate]",Ki,[7],5500 µM
same,kcat,"[7]; substrate MVAP, S. solfataricus PMK",1.98 (±0.10) s^−1
same,Km,"[8]; decarboxylation of MVAP to IP, read-out: apparent KM for MVAP",1150 µM
same,kcat,[8]; substrate MVAP,0.94 s^−1 and 0.94 (±0.08) s^−1
same,Km,"[8]; substrate MVAP, read-out: KM",1150 µM
same,kcat,[9],12.6 (±0.4) s^−1
same,conversion of MVAP to 5-EA,[10],48.7%
same,conversion of MVAP to 5-EA,[11],52.1%
same,conversion of MVAP to 5-EA,[12],39.2%
same,conversion to 5-EA,[13],< 0.2%
same,conversion of MVAP to 5-EA,[14],2.0%
same,5-EA formation,[15],do not yield any detectable 5-EA
same,5-EA formation,[16],do not yield any detectable 5-EA
same,5-EA formation,[17],do not yield any detectable 5-EA
same,turnover of MVAP (decarboxylase activity),[18],failed to show any turnover
B1,Km,[19]; B. floridae IPK,13.3 (±2.0) μM
same,kcat,[19]; B. floridae IPK,27.2 s⁻¹
same,kcat/Km,[19]; B. floridae IPK,2.05e+06 M⁻¹ s⁻¹
B2,Km,[19]; A. thaliana IPK,0.79 (±0.35) μM
same,kcat,[19]; A. thaliana IPK,1.9 s⁻¹
same,kcat/Km,[19]; A. thaliana IPK,2.4e+06 M⁻¹ s⁻¹
B3,Km,[20],11.8 (±2.0) μM
same,kcat,[20],20.9 ± 0.7 s⁻¹
same,kcat/Km,[20],1.77e+06 ± 310000 M⁻¹ s⁻¹
B4,Km,[21],15.7 (±5.0) μM
same,kcat,[21],2.02 ± 0.13 s⁻¹
same,kcat/Km,[21],130000 ± 40000 M⁻¹ s⁻¹
B5,Km,[19]; T. adhaerens IPK,3.1 (±1.6) μM
same,kcat,[19]; T. adhaerens IPK,2.4 s⁻¹
same,kcat/Km,[19]; T. adhaerens IPK,770000 M⁻¹ s⁻¹
B6,Km,[19]; M. maripaludis IPK,21.4 (±4.3) μM
same,kcat,[19]; M. maripaludis IPK,15.2 s⁻¹
same,kcat/Km,[19]; M. maripaludis IPK,710000 M⁻¹ s⁻¹
